Data published in ChEMBL document CHEMBL1154147, “Antityrosinase and antioxidant effects of ent-kaurane diterpenes from leaves of Broussonetia papyrifera” (J Nat Prod, 2008).

Legend:
Tyrosinase [1] = target: T1, Tyrosinase (Agaricus bisporus, UniProt O42713)
T1 sequence (O42713 whole entry): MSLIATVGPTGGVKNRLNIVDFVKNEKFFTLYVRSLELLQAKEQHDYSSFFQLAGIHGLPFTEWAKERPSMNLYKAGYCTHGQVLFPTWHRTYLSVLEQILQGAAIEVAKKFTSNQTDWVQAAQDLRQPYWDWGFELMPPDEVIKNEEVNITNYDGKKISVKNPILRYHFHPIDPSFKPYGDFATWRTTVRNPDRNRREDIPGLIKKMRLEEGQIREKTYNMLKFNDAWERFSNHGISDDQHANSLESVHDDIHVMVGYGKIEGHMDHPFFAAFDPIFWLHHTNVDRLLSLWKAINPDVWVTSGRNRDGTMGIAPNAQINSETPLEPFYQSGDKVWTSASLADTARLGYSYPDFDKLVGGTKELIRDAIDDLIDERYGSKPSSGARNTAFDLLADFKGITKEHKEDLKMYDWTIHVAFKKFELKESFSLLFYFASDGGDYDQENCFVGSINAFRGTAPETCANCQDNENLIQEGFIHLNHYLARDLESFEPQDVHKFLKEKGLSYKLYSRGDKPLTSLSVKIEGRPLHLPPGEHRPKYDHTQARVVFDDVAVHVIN
Description: (§1) Inhibition of mushroom tyrosinase after 90 mins

Tyrosinase [2] = target: T1, Tyrosinase; remark: listed apart in the source
Description: (§2) Inhibition of mushroom tyrosinase after 30 mins

[3] = test system: Radical scavenging activity
Description: Antioxidant activity assessed as DPPH free radical scavenging activity after 30 mins

Tyrosinase [4] = target: T1, Tyrosinase; remark: listed apart in the source
Description: as §2

Tyrosinase [5] = target: T1, Tyrosinase; remark: listed apart in the source
Description: as §1

SMILES	IC50 (Tyrosinase [1])	IC50 (Tyrosinase [2])	IC50 [3]	IC50 (Tyrosinase [4])	IC50 (Tyrosinase [5])
O=c1cc(-c2ccc(O)cc2)oc2cc(O)cc(O)c12 [APIGENIN]	305 µM	305 µM	Not Active		
CC1(C)CCC[C@]2(C)[C@@H]1C(=O)[C@@H](O)[C@@]13C[C@H](CC[C@@H]21)[C@@](O)(CO)C3 [BROUSSONETONE A]	322 µM	336 µM	Not Active		
CC1(C)CCC[C@]2(C)[C@@H]1C(=O)[C@H](O)[C@@]13C[C@H](CC[C@@H]21)[C@@](O)(CO)C3 [BROUSSONETONE B]	317 µM		Not Active	Not Active	
CC1(C)OC[C@]2(C[C@]34C[C@@H]2CC[C@H]3[C@]2(C)CCCC(C)(C)[C@H]2C(=O)[C@H]4O)O1 [BROUSSONETONE C]	323 µM	353 µM	Not Active		
COc1ccc(O)c(C(C)(C)C)c1.COc1ccc(O)cc1C(C)(C)C [BUTYLATED HYDROXYANISOLE]			79.2 µM		
O=c1cc(-c2ccc(O)cc2)oc2c([C@@H]3O[C@H](CO)[C@@H](O)[C@H](O)[C@H]3O)c(O)cc(O)c12 [VITEXIN]			Not Active	Not Active	Not Active
